Assay results taken from the NIST ThermoML archive (doi:10.1016/j.jct.2013.02.014).

Conditions: Liquid, Falling or rolling sphere viscometry

CCCCn1cc[n+](C)c1C.O=S(=O)([N-]S(=O)(=O)C(F)(F)F)C(F)(F)F
viscosity [mPa·s]
Conditions | 10000 kPa | 15000 kPa | 25000 kPa | 50000 kPa | 75000 kPa | 100000 kPa | 125000 kPa | 150000 kPa
313.15 K | 55.9 | 59.5 | 67.3 | 90.7 | 120.9 | 159.8 | 210.1 | 275
343.15 K | 19.5 | 20.5 | 22.7 | 28.8 | 36.3 | 45.5 | 56.9 | 70.9
363.15 K | 12.4 | 13 | 14.3 | 17.9 | 22.1 | 26.9 | 32.4 | 38.7
